Experimental data as given in patent publication US7247736B2, “Method of identifying inhibitors of DHODH” (4SC AG, priority 2002, dated 2007).
Entries after “also recorded” stand apart in the source; their conditions may differ.

Target: T1, human DHODH(Met30-Arg396) (Homo sapiens, UniProt Q02127)
T1 construct: N-terminally truncated human DHODH(Met30-Arg396); made in house; host or cells: E. coli BL21(DE3)Gold, pET-19b
Assay: X-ray co-crystal structure, inhibitor binding mode
Conditions: carboxylic acid group, subsite 2 vs subsite 3
Method: The hanging drops were incubated against 0.5 mL reservoir of 0.1 M acetate pH 4.8, 2.4-2.6 M ammonium sulfate and 30% glycerol. The crystallization conditions were screened by variation of pH versus ammonium sulfate concentration using a small grid screen (see FIG. 2):
The racemic mixtures were used for crystallization experiments.
Crystals were harvested with pre-mounted loops of size 0.5 mm (Hampton Research) and were flash frozen directly in the cryo stream of the measurement device.
Data were collected at the beamline BW6 at the DESY Hamburg on a MAR-CCD camera. […] The crystals were maintained at a temperature of 100 K during data collection.
[…] At this stage 5% or 10% (the “test set”) of unique reflections were flagged for cross validation to calculate the free R-factor (Rfree) during the refinement process.
(§1) The free accessible pdb entry 1D3G.pdb was used as a search model. The ligands brequinar and DDQ as well as all of the water molecules were removed prior to the MR search. The search model included the polypeptide chain of hDHODH(Met30-Arg396), one molecule of orotate, one molecule of the cofactor flavinmononucleotide (FMN) and one acetate molecule which was present under the crystallization conditions.
In a first round of refinement the MR model was subjected to rigid body refinement and a slow cooling simulated annealing protocol using a maximum likelihood target to remove model bias (Accelrys Inc. CNX program suite, CNX2002). Additionally, an individual b-factor refinement was carried out using standard CNX protocols.
After energy minimization the compound was built into the electron density manually. […] After an additional round of model building and water picking using CNX another complete round of refinement was performed.
as §1
In a first round of refinement the MR model was subjected to rigid body refinement and a slow cooling simulated annealing protocol using a maximum likelihood target to remove model bias (Accelrys Inc. CNX program suite, CNX2002). Additionally, an individual b-factor refinement was carried out using standard CNX-protocols.
Both compounds were energy minimized and built into the electron density manually. […] After an additional round of model building and water picking using CNX, another complete round of refinement was performed.

T1 sequence (Q02127 29-395): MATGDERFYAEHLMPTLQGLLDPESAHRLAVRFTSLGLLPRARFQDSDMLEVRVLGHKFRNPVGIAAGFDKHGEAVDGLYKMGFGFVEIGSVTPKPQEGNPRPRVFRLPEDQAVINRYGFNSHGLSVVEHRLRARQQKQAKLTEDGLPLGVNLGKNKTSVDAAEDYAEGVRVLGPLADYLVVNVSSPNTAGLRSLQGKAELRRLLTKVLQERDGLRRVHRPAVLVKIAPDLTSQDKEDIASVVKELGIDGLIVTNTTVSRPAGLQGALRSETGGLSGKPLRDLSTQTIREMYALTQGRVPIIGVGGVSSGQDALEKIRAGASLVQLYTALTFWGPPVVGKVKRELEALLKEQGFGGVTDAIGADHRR

Row | Structure (SMILES) | binding mode in crystal structure
1 | COc1cccc(-c2ccc(NC(=O)C3=C(C(=O)O)CCC3)c(F)c2)c1 [Compound 1] | non-brequinar-like
2 | O=C(O)C1=C(C(=O)Nc2c(F)cc(-c3cccc(OC(F)(F)F)c3)cc2F)CCC1 [Compound 2] | both a brequinar-like and a non-brequinar-like binding mode; also recorded: both the brequinar-like and non-brequinar-like binding mode
3 | O=C(O)C1=C(C(=O)Nc2c(F)c(F)c(-c3cccc(OC(F)(F)F)c3)c(F)c2F)CCC1 [Compound 3] | both the brequinar-like and non-brequinar-like binding mode
4 | O=C(O)C1=C(C(=O)Nc2ccc(-c3cccc(OC(F)(F)F)c3)cc2F)CCC1 [Compound 4] | non-brequinar-like
5 | O=C(Nc1ccc(-c2cccc(OC(F)(F)F)c2)cc1F)C1=CCCC1C(=O)O (stereo not drawn) [Compound 5] | non-brequinar-like
6 | COc1cccc(-c2ccc(NC(=O)C3CCCC3C(=O)O)c(F)c2)c1 (stereo not drawn) [Compound 6] | both a brequinar-like and a non-brequinar-like binding mode
7 | COc1cccc(-c2ccc(NC(=O)C3=C(C(=O)O)CCC3O)c(F)c2)c1 (stereo not drawn) [Compound 7] | non-brequinar-like
8 | COc1cccc(-c2ccc(NC(=O)C3=C(C(=O)O)C(O)CC3)c(F)c2)c1 (stereo not drawn) [Compound 8] | non-brequinar-like
9 | O=C(Nc1c(F)cc(-c2cccc(OC(F)(F)F)c2)cc1F)c1ccsc1C(=O)O [Compound 9] | pure brequinar-like binding mode
10 | COc1cccc(-c2ccc(NC(=O)c3ccsc3C(=O)O)c(F)c2)c1 [Compound 10] | both a brequinar-like and a non-brequinar-like binding mode; also recorded: both alternatives

Same assay, conditions: racemic mixture used for crystallization

Row | Structure (SMILES) | enantiomer bound in refined structure
11 | O=C(Nc1ccc(-c2cccc(OC(F)(F)F)c2)cc1F)C1=CCCC1C(=O)O (stereo not drawn) [Compound 5] | R-form
12 | COc1cccc(-c2ccc(NC(=O)C3CCCC3C(=O)O)c(F)c2)c1 (stereo not drawn) [Compound 6] | R-form
